Patent US5624831A, “Immobilized acetylcholinesterase stabilized by a film of gelatin or albumin containing trehalose” (priority 1994, dated 1997)

Key:
torpedo fish AchE = target: T1, torpedo fish AchE (Torpedo marmorata, UniProt P07692); test: Analysis of 5 pesticides dissolved in water by inhibition of immobilized AchE (Table VIII); type: biochemical; settings: for times less sensitivity of detection: compared with Naled, Carbofuran, Paraoxon; for sensitivity of the test (in words): in water, gelatin-trehalose protected
T1 construct: from tissue

acetylcholinesterase [1] = target: T2, acetylcholinesterase (Torpedo marmorata, UniProt P07692); test: Analysis of pesticides in salad extracts by inhibition of acetylcholinesterase (Table IX); type: biochemical; settings: read-out: % relative activity
T2 construct: from tissue
Description: The analysis of the presence of these inhibitors was done following the protocol described in example 1.

[2] = test system: Acetylcholinesterase, extracted from torpedo fish; test: Stability of acetylcholinesterase-sensitized wells: residual enzymatic activity after 7 days dry storage (Table I); type: physicochemical
Description: After a night of incubation at 4° C., the wells were rinsed and thereafter subjected to the following analysis:
1. Control (nothing added)
2. Rinsing of the wells with buffered water (0.05 M phosphate pH 7,00) containing 15% trehalose.
3. Covering of the wells with buffered water (0.05 M phosphate pH 7,00) containing 5% gelatin (240 bloom), followed by the elimination of the gelatin without rinsing
4. Covering of the wells with buffered water (0.05 M phosphate pH 7,00) containing 5% gelatin (240 bloom) and 15% trehalose, followed by an elimination of the gelatin witout rinsing.
The gelatin was solubilized by heating at 47° C., then cooling down to 37° C. before dispensing in the wells. The wells of the microtitration plates handled in this way were placed at 4° C., 37° C. and 50° C. during 7 days in a dry incubator, then analyzed for the remaining enzymatic activity, according to Ellman's method. Results are given in adsorbances read at 412 nm (table I).

Horseradish peroxidase = test: Stability of immobilized peroxidase under gelatin or albumin film containing trehalose, 7 days dry storage (Table II); type: physicochemical; settings: included in the gelifying film
Description: Horseradish peroxidase (0.2 mg/ml) was used to sensitize the wells of microtitration plates, following the method described in example I. After sensitization during one night at 4° C., the wells were covered either with a warm solution (47° C. for the solubilisation, 37° C. for the pouring into the wells) of a 5% gelatin solution or a 5% albumin solution, both containing trehalose in decreasing concentrations starting from a concentration of 8 mg/ml. Triton X100 at a concentration of 0.04% was added to the albumin solution, as a wetting agent. The wells were immediately emptied without rinsing and were thereafter placed at 4° C. and 37° C. duiring 7 days in a dry incubator. The remaining peroxidase activity was measured by addition to the wells of 100 μl of a solution of tetramethylbenzidine and hydrogen peroxide in a citrate-phosphate buffer at pH 5.5. The blue coloration obtained changes to yellow with sulfuric acid (100 μl, 0.5 N), added to stop the enzymatic reaction. The results are given in adsorbances read at 450 nm (table II)

acetylcholinesterase [3] = test: Analysis of a drug in spiked serum by inhibition of acetylcholinesterase; type: biochemical; settings: serum of a healthy subject
Description: (§1) The serum of a healthy subject was spiked with increasing concentrations of pyridostygmin and thereafter analysed for the enzymatic activity of acetylcholinesterase, following the protocol already outlined in former examples. One sees in graph 1 that the detection Of the inhibitor of AchE goes down to 1 to 2 μg/ml of this drug in serum.
as §1, with “neostygmin” for “pyridostygmin”, “2” for “1”, “of this” for “Of the”, “50 ng/ml” for “1 to 2 μg/ml”
as §1, with “A” for “The”, “eserin” for “pyridostygmin”, “3” for “1”, “of this” for “Of the”, “100 ng/ml” for “1 to 2 μg/ml”

T1 sequence (P07692 25-590): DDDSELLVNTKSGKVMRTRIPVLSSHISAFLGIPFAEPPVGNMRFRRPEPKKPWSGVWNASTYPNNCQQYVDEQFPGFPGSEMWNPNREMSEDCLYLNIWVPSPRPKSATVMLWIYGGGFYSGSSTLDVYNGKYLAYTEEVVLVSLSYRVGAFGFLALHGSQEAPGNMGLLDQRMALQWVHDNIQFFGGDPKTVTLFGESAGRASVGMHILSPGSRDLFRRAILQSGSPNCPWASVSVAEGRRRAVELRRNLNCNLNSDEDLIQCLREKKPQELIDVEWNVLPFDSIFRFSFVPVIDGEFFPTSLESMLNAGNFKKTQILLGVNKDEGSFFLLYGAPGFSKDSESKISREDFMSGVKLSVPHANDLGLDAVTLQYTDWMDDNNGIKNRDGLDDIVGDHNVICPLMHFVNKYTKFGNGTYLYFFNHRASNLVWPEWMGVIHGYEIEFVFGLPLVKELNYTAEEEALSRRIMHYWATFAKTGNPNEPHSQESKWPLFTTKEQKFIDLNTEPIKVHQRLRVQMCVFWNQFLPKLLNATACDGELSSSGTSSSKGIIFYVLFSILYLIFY
T2 sequence (P07692 25-590): as above

Structure (SMILES)	% of Residual activity (torpedo fish AchE; 10 μg/litre in water)	% of Residual activity (torpedo fish AchE; 50 μg/litre in water)	% of Residual activity (torpedo fish AchE; 100 μg/litre in water)	% of Residual activity (torpedo fish AchE; 1000 μg/litre in water)	% of Residual activity (torpedo fish AchE; 01 μg/litre in water)	sensitivity of the test (in words) (torpedo fish AchE)	also measured
CNC(=O)Oc1cccc2ccccc12 [Carbaryl]	80%	61%	44%	18%	–	–	times less sensitivity of detection (torpedo fish AchE): 100 times; activity at 0.01 µg/mL (acetylcholinesterase [1]): 80%; activity at 0.05 µg/mL (acetylcholinesterase [1]): 61%; activity at 0.1 µg/mL (acetylcholinesterase [1]): 51%; activity at 0.5 µg/mL (acetylcholinesterase [1]): 26%; activity at 1 µg/mL (acetylcholinesterase [1]): 28%
CNC(=O)Oc1cccc2c1OC(C)(C)C2 [Carbofuran]	35%	20%	18%	14%	73%	most sensitive	–
COP(=O)(OC)OC=C(Cl)Cl [Dichlorvos]	80%	60%	49%	3%	–	–	times less sensitivity of detection (torpedo fish AchE): 100 times
COP(=O)(OC)OC(Br)C(Cl)(Cl)Br (centres unmarked) [Naled]	11%	0%	0%	0%	73%	most sensitive	activity at 0.001 µg/mL (acetylcholinesterase [1]): 90%; activity at 0.01 µg/mL (acetylcholinesterase [1]): 63%; activity at 0.05 µg/mL (acetylcholinesterase [1]): 20%; activity at 0.1 µg/mL (acetylcholinesterase [1]): 9%; activity at 1 µg/mL (acetylcholinesterase [1]): 3%
CCOP(=O)(OCC)Oc1ccc([N+](=O)[O-])cc1 [Paraoxon]	40%	0%	0%	0%	80%	followed closely	–
OC[C@H]1O[C@H](O[C@H]2O[C@H](CO)[C@@H](O)[C@H](O)[C@H]2O)[C@H](O)[C@@H](O)[C@@H]1O [Trehalose, α-D glucopyranosyl-α-D-glucopyranoside]	–	–	–	–	–	–	Residual enzymatic activity after storage of AchE-sensitized wells during 7 days ([2]; 4° C.): 1.88 adsorbances read at 412 nm; Residual enzymatic activity after storage of AchE-sensitized wells during 7 days ([2]; 37° C.): 0.97 adsorbances read at 412 nm; Residual enzymatic activity after storage of AchE-sensitized wells during 7 days ([2]; 50° C.): 0.12 adsorbances read at 412 nm; concentration of trehalose sufficient and necessary to stabilize the dry enzyme (Horseradish peroxidase): Two
CNC(=O)Oc1ccc2c(c1)[C@]1(C)CCN(C)[C@@H]1N2C [eserin]	–	–	–	–	–	–	detection of this inhibitor of AchE goes down to (acetylcholinesterase [3]): 100 ng/mL
CN(C)C(=O)Oc1cccc([N+](C)(C)C)c1 [neostygmin]	–	–	–	–	–	–	detection of this inhibitor of AchE goes down to (acetylcholinesterase [3]): 50 ng/mL
